Test results reported in patent US20250019385A1, “SPIROCYCLIC ANNULATED 2-AMINO-3-CYANO THIOPHENES AND DERIVATIVES FOR THE TREATMENT OF CANCER” (Boehringer Ingelheim International GmbH, priority 2023, published 2025).

Each molecule was assayed against KRAS (G12V)::CRAF protein::protein interaction (Homo sapiens (Human), UniProt P01116, C118S/G12V) (assay: KRAS TR-FRET assay (KRAS G12V::CRAF, GTP)). Conditions: not given.
Type: binding
Procedure: (§1) This assay measures the inhibitory effect of compounds on KRAS::CRAF protein::protein interactions in the presence of GTP using Time-resolved fluorescence energy transfer (TR-FRET).
(§2) The following wildtype or mutant alleles of KRAS and CRAF protein have been used at the given concentrations:
KRAS (G12V) 1-169, C118S, N-terminal 6His-tag, C-terminal avi-tag (Boehringer Ingelheim in house protein prep); final assay concentration 15 nM.
(§3) CRAF Ras binding domain, GST-tag, TEV cleavage site (Boehringer Ingelheim in house protein prep); final assay concentration 15 nM.
(§4) Test compounds dissolved in DMSO were dispensed onto assay plates (Proxiplate 384 PLUS, white, PerkinElmer; 6008289) using an Access Labcyte Workstation with the Labcyte Echo 55x. For the chosen highest assay concentration of 100 μM, 150 nl of compound solution was transferred from a 10 mM DMSO compound stock solution. A series of eleven fivefold dilutions per compound was transferred to the assay plate, compound dilutions were tested in duplicates. DMSO was added as backfill to a total volume of 150 nl.
(§5) The assay runs on a fully automated robotic system. To 150 nl of compound dilution 15 μl of a mix including the respective KRAS allele, CRAF (e.g. KRAS (G12D)::CRAF; final assay concentrations see above), GTP nucleotide (Sigma G8877; final assay concentration 10 μM), Lance Eu—W1024 labeled Streptavidin (PerkinElmer, Cat No AD0063; final assay concentration 1.5 nM) and Anti-GST surelight APC (PerkinElmer, Cat No AD0059G; final assay concentration 30 nM) in assay buffer (1×PBS, 0.1% BSA, 0.05% Tween 20) are added into columns 1-23 and 15 μL of the solution without the respective KRAS allele were added to row 24.
(§6) Plates are kept at room temperature in a darkened incubator. After 60 minutes incubation time the signal is measured in a PerkinElmer Envision HTS Multilabel Reader using the TR-FRET LANCE Ultra specs from PerkinElmer.
(§7) Each plate contains 16 wells of a negative control (diluted DMSO instead of test compound; w respective KRAS allele; column 23) and 16 wells of a positive control (diluted DMSO instead of test compound; w/o respective KRAS allele; column 24).
(§8) IC50 values were calculated and analyzed with Boehringer Ingelheim's MEGALAB 50 application using a 4 parametric logistic model.
(§9) Tables of example compounds disclosed herein contain IC50 values determined using the above assays (see Table 44).

Sequence of KRAS (G12V)::CRAF protein::protein interaction (P01116 other isoform, or with tags, fused parts or gaps G12V/C118S): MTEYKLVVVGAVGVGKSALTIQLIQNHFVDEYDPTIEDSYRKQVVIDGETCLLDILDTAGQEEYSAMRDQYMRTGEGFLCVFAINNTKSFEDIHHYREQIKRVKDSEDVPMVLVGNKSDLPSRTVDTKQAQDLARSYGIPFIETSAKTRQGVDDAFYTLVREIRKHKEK

Question: How did the IC50 turn out when `CC(C)n1c(=O)n([C@@H]2CCOC2)c2nc(-c3onc4c3CCC[C@@]43CCCc4sc(N)c(C#N)c43)nc(O[C@@H](C)[C@@H]3CCCN3C)c21` [I-32] was run?
Answer: 191 nM

Question: With `C[C@H](Oc1nc(-c2onc3c2CCC[C@@]32CCCc3sc(N)c(C#N)c32)nc2c1cnn2[C@@H]1CCOC1)[C@@H]1CCCN1C` [I-43] as the molecule, how does the IC50 read?
Answer: 149 nM

Question: Which IC50 does the source give for `C[C@H](Oc1nc(-c2onc3c2CCC[C@@]32CCCc3sc(N)c(C#N)c32)nc2c1n(C)c(=O)n2[C@H]1CCOC1)[C@@H]1CCCN1C` [I-9] here?
Answer: 199 nM

Question: Which IC50 does the source give for `C[C@H](Oc1nc(-c2onc3c2CCC[C@@]32CCCc3sc(N)c(C#N)c32)nc2c1n(C)c(=O)n2C12COC(C1)C2)[C@@H]1CCCN1C` [I-15] here?
Answer: 150 nM

Question: For `C[C@H](Oc1nc(-c2noc3c2CCC[C@@]32CCCc3sc(N)c(C#N)c32)nc2c1CCO[C@]21CCOC1)[C@@H]1CCCN1C` [II-9b], which IC50 is on record?
Answer: 35 nM

Question: How did the IC50 turn out when `C[C@H](Oc1nc(-c2onc3c2CCC[C@@]32CCCc3sc(N)c(C#N)c32)nc2c1n(C)c(=O)n2[C@@H]1CCOC1)[C@@H]1C[C@@H]2C[C@@H]2N1C` [I-28] was run?
Answer: 241 nM

What follows are molecules tested against KRAS (WT)::CRAF protein::protein interaction (Homo sapiens (Human), UniProt P01116) (assay: KRAS TR-FRET assay (KRAS WT::CRAF, GTP)). Conditions: not given.
Type: binding
Procedure: as §1, §2
KRAS (WT) 1-169, N-terminal 6His-tag, C-terminal avi-tag (Boehringer Ingelheim in house protein prep); final assay concentration 15 nM.
as §3, §4, §5, §6, §7, §8, §9

Sequence of KRAS (WT)::CRAF protein::protein interaction (P01116 other isoform, or with tags, fused parts or gaps): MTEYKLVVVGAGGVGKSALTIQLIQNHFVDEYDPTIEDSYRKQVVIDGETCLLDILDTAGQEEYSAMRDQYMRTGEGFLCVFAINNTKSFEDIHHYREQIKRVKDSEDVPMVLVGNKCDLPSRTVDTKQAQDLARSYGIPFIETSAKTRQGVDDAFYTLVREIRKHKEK

Question: `CC(C)n1c(=O)n([C@@H]2CCOC2)c2nc(-c3onc4c3CCC[C@@]43CCCc4sc(N)c(C#N)c43)nc(O[C@@H](C)[C@@H]3CCCN3C)c21` [I-32] was tested. Which IC50 did it give?
Answer: 605 nM

Question: For `C[C@H](Oc1nc(-c2onc3c2CCC[C@@]32CCCc3sc(N)c(C#N)c32)nc2c1cnn2[C@@H]1CCOC1)[C@@H]1CCCN1C` [I-43], which IC50 is on record?
Answer: 326 nM

Question: With `C[C@H](Oc1nc(-c2onc3c2CCC[C@@]32CCCc3sc(N)c(C#N)c32)nc2c1n(C)c(=O)n2[C@H]1CCOC1)[C@@H]1CCCN1C` [I-9] as the molecule, how does the IC50 read?
Answer: 611 nM

Question: Which IC50 does the source give for `C[C@H](Oc1nc(-c2onc3c2CCC[C@@]32CCCc3sc(N)c(C#N)c32)nc2c1n(C)c(=O)n2C12COC(C1)C2)[C@@H]1CCCN1C` [I-15] here?
Answer: 179 nM

Question: How did the IC50 turn out when `C[C@H](Oc1nc(-c2noc3c2CCC[C@@]32CCCc3sc(N)c(C#N)c32)nc2c1CCO[C@]21CCOC1)[C@@H]1CCCN1C` [II-9b] was run?
Answer: 80 nM

Question: How did the IC50 turn out when `C[C@H](Oc1nc(-c2onc3c2CCC[C@@]32CCCc3sc(N)c(C#N)c32)nc2c1n(C)c(=O)n2[C@@H]1CCOC1)[C@@H]1C[C@@H]2C[C@@H]2N1C` [I-28] was run?
Answer: 541 nM

Each molecule was assayed against KRAS (G12D)::CRAF protein::protein interaction (Homo sapiens (Human), UniProt P01116, G12D) (assay: KRAS TR-FRET assay (KRAS G12D::CRAF, GTP)). Conditions: not given.
Type: binding
Procedure: as §1, §2
KRAS (G12D) 1-169, N-terminal 6His-tag, C-terminal avi-tag (Xtal BioStructures, Inc.); final assay concentration 15 nM,
as §3, §4, §5, §6, §7, §8, §9

Sequence of KRAS (G12D)::CRAF protein::protein interaction (P01116 other isoform, or with tags, fused parts or gaps G12D): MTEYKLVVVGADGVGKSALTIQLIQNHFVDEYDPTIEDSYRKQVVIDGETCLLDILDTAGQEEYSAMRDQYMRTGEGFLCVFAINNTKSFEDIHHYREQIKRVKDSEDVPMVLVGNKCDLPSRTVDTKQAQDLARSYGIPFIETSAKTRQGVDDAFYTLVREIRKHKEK

Question: For `CC(C)n1c(=O)n([C@@H]2CCOC2)c2nc(-c3onc4c3CCC[C@@]43CCCc4sc(N)c(C#N)c43)nc(O[C@@H](C)[C@@H]3CCCN3C)c21` [I-32], which IC50 is on record?
Answer: 478 nM

Question: `C[C@H](Oc1nc(-c2onc3c2CCC[C@@]32CCCc3sc(N)c(C#N)c32)nc2c1cnn2[C@@H]1CCOC1)[C@@H]1CCCN1C` [I-43] was tested. Which IC50 did it give?
Answer: 255 nM

Question: `C[C@H](Oc1nc(-c2onc3c2CCC[C@@]32CCCc3sc(N)c(C#N)c32)nc2c1n(C)c(=O)n2[C@H]1CCOC1)[C@@H]1CCCN1C` [I-9] was tested. Which IC50 did it give?
Answer: 418 nM

Question: Which IC50 does the source give for `C[C@H](Oc1nc(-c2onc3c2CCC[C@@]32CCCc3sc(N)c(C#N)c32)nc2c1n(C)c(=O)n2C12COC(C1)C2)[C@@H]1CCCN1C` [I-15] here?
Answer: 298 nM

Question: Which IC50 does the source give for `C[C@H](Oc1nc(-c2noc3c2CCC[C@@]32CCCc3sc(N)c(C#N)c32)nc2c1CCO[C@]21CCOC1)[C@@H]1CCCN1C` [II-9b] here?
Answer: 117 nM

Question: With `C[C@H](Oc1nc(-c2onc3c2CCC[C@@]32CCCc3sc(N)c(C#N)c32)nc2c1n(C)c(=O)n2[C@@H]1CCOC1)[C@@H]1C[C@@H]2C[C@@H]2N1C` [I-28] as the molecule, how does the IC50 read?
Answer: 434 nM

The molecules below were run on Ba/F3 cells KRAS G12D (assay: Ba/F3 proliferation assay (KRAS G12D)). Conditions: Mus musculus, BaF3, 72 h, AlamarBlue viability.
Type: cell-based
Outline: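 Ba/F3 cells retrovirally transduced with KRAS G12 mutant, puromycin-selected, grown IL-3-independent; seeded in RPMI-1640 + 10% FCS without IL-3. Logarithmic compound dose series in duplicate, 72 h at 37° C., AlamarBlue fluorescence as % of DMSO control; IC50 from four-parameter non-linear regression.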

Question: With `CC(C)n1c(=O)n([C@@H]2CCOC2)c2nc(-c3onc4c3CCC[C@@]43CCCc4sc(N)c(C#N)c43)nc(O[C@@H](C)[C@@H]3CCCN3C)c21` [I-32] as the molecule, how does the IC50 read?
Answer: 58 nM

Question: Which IC50 does the source give for `C[C@H](Oc1nc(-c2onc3c2CCC[C@@]32CCCc3sc(N)c(C#N)c32)nc2c1cnn2[C@@H]1CCOC1)[C@@H]1CCCN1C` [I-43] here?
Answer: 49 nM

Question: With `C[C@H](Oc1nc(-c2onc3c2CCC[C@@]32CCCc3sc(N)c(C#N)c32)nc2c1n(C)c(=O)n2[C@H]1CCOC1)[C@@H]1CCCN1C` [I-9] as the molecule, how does the IC50 read?
Answer: 46 nM

Question: `C[C@H](Oc1nc(-c2onc3c2CCC[C@@]32CCCc3sc(N)c(C#N)c32)nc2c1n(C)c(=O)n2C12COC(C1)C2)[C@@H]1CCCN1C` [I-15] was tested. Which IC50 did it give?
Answer: 51 nM

Question: `C[C@H](Oc1nc(-c2noc3c2CCC[C@@]32CCCc3sc(N)c(C#N)c32)nc2c1CCO[C@]21CCOC1)[C@@H]1CCCN1C` [II-9b] was tested. Which IC50 did it give?
Answer: 8 nM

Question: For `C[C@H](Oc1nc(-c2onc3c2CCC[C@@]32CCCc3sc(N)c(C#N)c32)nc2c1n(C)c(=O)n2[C@@H]1CCOC1)[C@@H]1C[C@@H]2C[C@@H]2N1C` [I-28], which IC50 is on record?
Answer: 53 nM
